Data reported in patent publication US8748421B2, “Triazine compounds as P13 kinase and MTOR inhibitors” (Wyeth LLC, priority 2009, dated 2014).

Legend:
PI3K-gamma = PI3K-gamma (Homo sapiens, UniProt P48736); test: PI3K-gamma fluorescence polarization assay; conditions: read-out: IC50 PI3Kγ
PI3K-alpha = PI3K-alpha (Homo sapiens, UniProt P42336); test: PI3K-alpha fluorescence polarization assay; conditions: read-out: IC50 PI3Kα
Sequence of PI3K-alpha (P42336 whole entry, species assumed): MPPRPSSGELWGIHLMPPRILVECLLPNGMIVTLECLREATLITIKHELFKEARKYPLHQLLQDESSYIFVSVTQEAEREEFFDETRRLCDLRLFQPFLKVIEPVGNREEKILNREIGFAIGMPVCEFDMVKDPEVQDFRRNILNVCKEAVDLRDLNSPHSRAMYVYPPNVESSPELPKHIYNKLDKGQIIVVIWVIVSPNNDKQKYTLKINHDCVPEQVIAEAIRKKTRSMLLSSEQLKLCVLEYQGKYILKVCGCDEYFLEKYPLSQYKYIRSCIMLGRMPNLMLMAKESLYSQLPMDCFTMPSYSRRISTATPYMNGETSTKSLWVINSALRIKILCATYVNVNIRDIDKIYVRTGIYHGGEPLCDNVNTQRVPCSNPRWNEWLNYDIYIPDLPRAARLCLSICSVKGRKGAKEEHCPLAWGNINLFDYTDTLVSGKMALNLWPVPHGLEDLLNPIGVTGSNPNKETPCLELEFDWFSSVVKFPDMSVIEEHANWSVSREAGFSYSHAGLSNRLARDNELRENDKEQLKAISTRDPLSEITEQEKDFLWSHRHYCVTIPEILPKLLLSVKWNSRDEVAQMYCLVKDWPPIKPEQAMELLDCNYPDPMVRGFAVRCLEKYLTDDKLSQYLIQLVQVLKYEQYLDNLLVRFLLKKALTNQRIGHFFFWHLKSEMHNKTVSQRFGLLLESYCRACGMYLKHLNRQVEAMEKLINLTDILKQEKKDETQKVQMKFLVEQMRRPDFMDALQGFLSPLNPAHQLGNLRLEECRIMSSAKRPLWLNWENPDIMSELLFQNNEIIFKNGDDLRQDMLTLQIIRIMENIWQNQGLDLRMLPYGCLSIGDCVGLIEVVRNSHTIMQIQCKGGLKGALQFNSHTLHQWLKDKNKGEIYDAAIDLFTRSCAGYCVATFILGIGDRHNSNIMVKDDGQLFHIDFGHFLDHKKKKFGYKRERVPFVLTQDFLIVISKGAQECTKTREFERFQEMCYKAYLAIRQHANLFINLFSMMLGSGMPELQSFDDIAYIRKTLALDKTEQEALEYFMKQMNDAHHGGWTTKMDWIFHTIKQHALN
Sequence of PI3K-alpha (P27986 whole entry partner, species assumed): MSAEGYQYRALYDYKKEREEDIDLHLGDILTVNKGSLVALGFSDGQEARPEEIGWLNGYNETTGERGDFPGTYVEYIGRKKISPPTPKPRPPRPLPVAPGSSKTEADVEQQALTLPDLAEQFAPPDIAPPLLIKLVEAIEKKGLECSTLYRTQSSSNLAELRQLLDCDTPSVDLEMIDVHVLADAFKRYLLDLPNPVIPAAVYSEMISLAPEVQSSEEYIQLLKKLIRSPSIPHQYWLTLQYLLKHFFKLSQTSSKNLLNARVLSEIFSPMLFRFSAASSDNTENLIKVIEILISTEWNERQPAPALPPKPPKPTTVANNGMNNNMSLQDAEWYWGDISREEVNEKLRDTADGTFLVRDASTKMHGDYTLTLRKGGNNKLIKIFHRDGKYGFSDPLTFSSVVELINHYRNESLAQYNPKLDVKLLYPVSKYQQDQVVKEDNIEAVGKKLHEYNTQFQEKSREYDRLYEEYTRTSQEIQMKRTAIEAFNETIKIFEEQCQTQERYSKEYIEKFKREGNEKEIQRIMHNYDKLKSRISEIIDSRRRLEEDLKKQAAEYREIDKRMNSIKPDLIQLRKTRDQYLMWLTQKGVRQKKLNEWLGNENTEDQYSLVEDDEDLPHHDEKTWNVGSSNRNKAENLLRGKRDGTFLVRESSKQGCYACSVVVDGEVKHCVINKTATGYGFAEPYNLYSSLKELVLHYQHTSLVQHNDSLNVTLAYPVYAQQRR

Sequence of PI3K-gamma (P48736 whole entry, species assumed): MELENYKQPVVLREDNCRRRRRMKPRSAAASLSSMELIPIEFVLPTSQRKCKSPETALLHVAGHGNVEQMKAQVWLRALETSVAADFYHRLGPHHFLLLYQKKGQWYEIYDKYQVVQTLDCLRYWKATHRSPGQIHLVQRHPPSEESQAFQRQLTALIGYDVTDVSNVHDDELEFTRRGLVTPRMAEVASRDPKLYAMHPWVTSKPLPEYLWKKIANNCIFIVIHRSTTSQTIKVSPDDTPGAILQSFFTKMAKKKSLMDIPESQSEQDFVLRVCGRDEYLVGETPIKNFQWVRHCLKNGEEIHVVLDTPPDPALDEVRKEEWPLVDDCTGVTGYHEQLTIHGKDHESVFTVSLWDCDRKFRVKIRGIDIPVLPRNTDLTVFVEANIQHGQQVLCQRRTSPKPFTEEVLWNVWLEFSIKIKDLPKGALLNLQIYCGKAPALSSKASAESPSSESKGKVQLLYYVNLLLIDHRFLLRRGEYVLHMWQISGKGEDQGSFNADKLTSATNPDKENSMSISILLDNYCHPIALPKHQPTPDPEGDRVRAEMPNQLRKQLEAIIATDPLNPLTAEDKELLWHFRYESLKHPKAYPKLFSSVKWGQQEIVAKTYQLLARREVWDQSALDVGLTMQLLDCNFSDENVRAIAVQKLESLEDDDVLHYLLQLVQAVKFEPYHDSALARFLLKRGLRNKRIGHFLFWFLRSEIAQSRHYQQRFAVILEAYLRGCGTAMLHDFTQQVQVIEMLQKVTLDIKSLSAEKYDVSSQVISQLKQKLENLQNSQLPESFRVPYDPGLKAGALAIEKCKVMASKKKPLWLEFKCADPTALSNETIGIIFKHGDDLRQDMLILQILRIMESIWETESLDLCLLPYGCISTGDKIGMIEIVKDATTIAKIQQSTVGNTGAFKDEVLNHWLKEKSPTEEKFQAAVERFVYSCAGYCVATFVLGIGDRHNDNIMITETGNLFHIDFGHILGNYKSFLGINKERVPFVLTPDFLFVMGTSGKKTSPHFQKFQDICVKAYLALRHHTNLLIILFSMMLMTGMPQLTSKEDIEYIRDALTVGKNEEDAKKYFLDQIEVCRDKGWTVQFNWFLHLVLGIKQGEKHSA

IC50 (PI3K-gamma) [nM] | IC50 (PI3K-alpha) [nM] | Compound
10 | 0.75 | CN(C)CCN(C)C(=O)c1ccc(NC(=O)Nc2ccc(-c3nc(C4CCOCC4)nc(N4CCOCC4)n3)cc2)cc1 [Example 834, N-[2-(dimethylamino)ethyl]-N-methyl-4-[({4-[4-morpholin-4-yl-6-(tetrahydro-2H-pyran-4-yl)-1,3,5-triazin-2-yl]phenyl}carbamoyl)amino]benzamide]
8 | 2.1 | C[C@H]1CN(C(=O)c2ccc(NC(=O)Nc3ccc(-c4nc(N5CCOCC5)nc(N5CCOCC5)n4)cc3)cc2)CCN1C1CCC1 [Example 863, 1-(4-{[(3S)-4-cyclobutyl-3-methylpiperazin-1-yl]carbonyl}phenyl)-3-{4-[4,6-di(morpholin-4-yl)-1,3,5-triazin-2-yl]phenyl}urea]
532 | 28.5 | CC(C)N1CCCN(c2nc(-c3ccc(NC(=O)Nc4ccc(C(=O)N5CC[C@H](N(C)C)C5)cc4)cc3)nc(N3CCOC[C@@H]3C)n2)CC1 [Example 856, 1-(4-{[(3S)-3-(dimethylamino)pyrrolidin-1-yl]carbonyl}phenyl)-3-(4-{4-[(3S)-3-methylmorpholin-4-yl]-6-[4-(propan-2-yl)-1,4-diazepan-1-yl]-1,3,5-triazin-2-yl}phenyl)urea]
5.6 | 0.85 | C[C@@H]1CN(C(=O)c2ccc(NC(=O)Nc3ccc(-c4nc(N5CCOCC5)nc(N5CCOCC5)n4)cc3)cc2)CCN1C1CCC1 [Example 851, 1-(4-{[(3R)-4-cyclobutyl-3-methylpiperazin-1-yl]carbonyl}phenyl)-3-{4-[4,6-di(morpholin-4-yl)-1,3,5-triazin-2-yl]phenyl}urea]
15 | 5.15 | C[C@H]1COCCN1c1nc(-c2ccc(NC(=O)Nc3ccc(C(=O)N4CCC(C#N)CC4)cc3)cc2)nc(N2CCOC[C@@H]2C)n1 [Example 840, 1-(4-{4,6-bis[(3S)-3-methylmorpholin-4-yl]-1,3,5-triazin-2-yl}phenyl)-3-{4-[(4-cyanopiperidin-1-yl)carbonyl]phenyl}urea]
74 | 8 | 1-[4-(4,6-dimorpholin-4-yl-1,3,5-triazin-2-yl)phenyl]-3-[3-(1-hydroxyethyl)phenyl]urea [Example 88]
> 100000 |  | CN1CCN(c2ccc(NC(=O)Nc3ccc(-c4nc(-c5ccc(NC(=O)NC6CC6)cc5)nc(N5CC6CCC(C5)O6)n4)cc3)cc2)CC1 [Example 146, 1-cyclopropyl-3-(4-{4-[4-({[4-(4-methylpiperazin-1-yl)phenyl]carbamoyl}amino)phenyl]-6-(8-oxa-3-azabicyclo[3.2.1]oct-3-yl)-1,3,5-triazin-2-yl}phenyl)urea]
6.5 | 0.6 | CN(C)[C@H]1CCN(C(=O)c2ccc(NC(=O)Nc3ccc(-c4nc(C5CCOCC5)nc(N5CCOCC5)n4)cc3)cc2)C1 [Example 869, 1-(4-{[(3S)-3-(dimethylamino)pyrrolidin-1-yl]carbonyl}phenyl)-3-{4-[4-morpholin-4-yl-6-(tetrahydro-2H-pyran-4-yl)-1,3,5-triazin-2-yl]phenyl}urea]
75 | 11.9 | CC(=O)NC1CCN(C(=O)c2ccc(NC(=O)Nc3ccc(-c4nc(N5CCOC[C@@H]5C)nc(N5CCOC[C@@H]5C)n4)cc3)cc2)CC1 [Example 837, N-{1-[(4-{[(4-{4,6-bis[(3S)-3-methylmorpholin-4-yl]-1,3,5-triazin-2-yl}phenyl)carbamoyl]amino}phenyl)carbonyl]piperidin-4-yl}acetamide]
7.5 | 1 | C[C@H]1CN(C(=O)c2ccc(NC(=O)Nc3ccc(-c4nc(N5CCOCC5)nc(N5CCOCC5)n4)cc3)cc2)CCN1C [Example 864, 1-(4-{[(3S)-3,4-dimethylpiperazin-1-yl]carbonyl}phenyl)-3-{4-[4,6-di(morpholin-4-yl)-1,3,5-triazin-2-yl]phenyl}urea]
22.5 | 3.5 | CC(C)N1CCCN(c2nc(-c3ccc(NC(=O)Nc4ccc(C(=O)N5CCNCC5)cc4)cc3)nc(N3CCOCC3)n2)CC1 [Example 846, 1-(4-{4-(morpholin-4-yl)-6-[4-(propan-2-yl)-1,4-diazepan-1-yl]-1,3,5-triazin-2-yl}phenyl)-3-[4-(piperazin-1-ylcarbonyl)phenyl]urea]
16.5 | 1.6 | C[C@H]1CN(C(=O)c2ccc(NC(=O)Nc3ccc(-c4nc(C5CCOCC5)nc(N5CCOCC5)n4)cc3)cc2)CCN1C [Example 866, 1-(4-{[(3S)-3,4-dimethylpiperazin-1-yl]carbonyl}phenyl)-3-{4-[4-(morpholin-4-yl)-6-(tetrahydro-2H-pyran-4-yl)-1,3,5-triazin-2-yl]phenyl}urea]
434 | 57 | COCCNC(=O)c1ccc(NC(=O)Nc2ccc(-c3nc(N4CCOCC4)nc(N4CCCN(C(C)C)CC4)n3)cc2)cc1 [Example 860, N-(2-methoxyethyl)-4-{[(4-{4-(morpholin-4-yl)-6-[4-(propan-2-yl)-1,4-diazepan-1-yl]-1,3,5-triazin-2-yl}phenyl)carbamoyl]amino}benzamide]
444 | 122 | O=C(Nc1ccc(-c2nc(N3CCOCC3)nc(N3CCOCC3)n2)cc1)Nc1ccc(C(O)(C(F)(F)F)C(F)(F)F)cc1 [Example 86, 1-[4-(4,6-dimorpholin-4-yl-1,3,5-triazin-2-yl)phenyl]-3-{4-[2,2,2-trifluoro-1-hydroxy-1-(trifluoromethyl)ethyl]phenyl}urea]
54.5 | 3.55 | C[C@H]1COCCN1c1nc(-c2ccc(NC(=O)Nc3ccc(C(=O)N4CC[C@@H](N(C)C)C4)cc3)cc2)nc(N2CCOC[C@@H]2C)n1 [Example 842, 1-(4-{4,6-bis[(3S)-3-methylmorpholin-4-yl]-1,3,5-triazin-2-yl}phenyl)-3-(4-{[(3R)-3-(dimethylamino)pyrrolidin-1-yl]carbonyl}phenyl)urea]
5.05 | 0.3 | C[C@H]1CN(C(=O)c2ccc(NC(=O)Nc3ccc(-c4nc(N5CCOCC5)nc(N5CCOCC5)n4)cc3)cc2)CCN1 [Example 853, 1-{4-[4,6-di(morpholin-4-yl)-1,3,5-triazin-2-yl]phenyl}-3-(4-{[(3S)-3-methylpiperazin-1-yl]carbonyl}phenyl)urea]
> 100000 |  | COc1ccc(NC(=O)Nc2ccc(-c3nc(N4CCOCC4)nc(N4CCOCC4)n3)cc2)c(OC)c1 [Example 7, 1-(2,4-dimethoxyphenyl)-3-[4-(4,6-dimorpholin-4-yl-1,3,5-triazin-2-yl)phenyl]-urea]
6.1 | 0.65 | C[C@@H]1CN(C(=O)c2ccc(NC(=O)Nc3ccc(-c4nc(N5CCOCC5)nc(N5CCOCC5)n4)cc3)cc2)CCN1C [Example 850, 1-(4-{[(3R)-3,4-dimethylpiperazin-1-yl]carbonyl}phenyl)-3-{4-[4,6-di(morpholin-4-yl)-1,3,5-triazin-2-yl]phenyl}urea]
240 | 17.9 | CC(C)N1CCCN(c2nc(-c3ccc(NC(=O)Nc4ccc(C(=O)N5CCOCC5)cc4)cc3)nc(N3CCOCC3)n2)CC1 [Example 859, 1-[4-(morpholin-4-ylcarbonyl)phenyl]-3-(4-{4-(morpholin-4-yl)-6-[4-(propan-2-yl)-1,4-diazepan-1-yl]-1,3,5-triazin-2-yl}phenyl)urea]
291 | 28.5 | CC(C)N1CCCN(c2nc(-c3ccc(NC(=O)Nc4ccc(C(=O)N5CC[C@H](N(C)C)C5)cc4)cc3)nc(N3CCOCC3)n2)CC1 [Example 843, 1-(4-{[(3S)-3-(dimethylamino)pyrrolidin-1-yl]carbonyl}phenyl)-3-(4-{4-(morpholin-4-yl)-6-[4-(propan-2-yl)-1,4-diazepan-1-yl]-1,3,5-triazin-2-yl}phenyl)urea]
108 |  | C[C@H]1COCCN1c1nc(-c2ccc(NC(=O)Nc3ccc(C(=O)N4CC[C@H](N(C)C)C4)cc3)cc2)nc(N2CCOC[C@@H]2C)n1 [Example 841, 1-(4-{4,6-bis[(3S)-3-methylmorpholin-4-yl]-1,3,5-triazin-2-yl}phenyl)-3-(4-{[(3S)-3-(dimethylamino)pyrrolidin-1-yl]carbonyl}phenyl)urea]
> 100000 |  | Cc1ccc(NC(=O)Nc2ccc(-c3nc(NC4CN(C(=O)OC(C)(C)C)C4)nc(N4CCOCC4)n3)cc2)cc1 [Example 16, tert-butyl 3-{[4-(4-{[(4-methylphenyl)carbamoyl]amino}phenyl)-6-morpholin-4-yl-1,3,5-triazin-2-yl]amino}azetidine-1-carboxylate]
 | 2.12 | CN1CCN(C(=O)c2ccc(NC(=O)Nc3ccc(-c4nc(C5CCOCC5)nc(N5CCOCC5)n4)cc3)cc2)CC1 [Example 830, 1-{4-[(4-methylpiperazin-1-yl)carbonyl]phenyl}-3-{4-[4-morpholin-4-yl-6-(tetrahydro-2H-pyran-4-yl)-1,3,5-triazin-2-yl]phenyl}urea]
 | 0.95 | CN(C)[C@@H]1CCN(C(=O)c2ccc(NC(=O)Nc3ccc(-c4nc(N5CCOCC5)nc(N5CCOCC5)n4)cc3)cc2)C1 [Example 831, 1-(4-{[(3R)-3-(dimethylamino)pyrrolidin-1-yl]carbonyl}phenyl)-3-[4-(4,6-dimorpholin-4-yl-1,3,5-triazin-2-yl)phenyl]urea]

Compound | IC50 (PI3K-gamma) [nM] | IC50 (PI3K-alpha) [nM]
CCN(CC)CCOC(=O)c1ccc(NC(=O)Nc2ccc(-c3nc(N4CCOCC4)nc(N4C5CCC4COC5)n3)cc2)cc1 [Example 675, 2-(diethylamino)ethyl 4-[({4-[4-morpholin-4-yl-6-(3-oxa-8-azabicyclo[3.2.1]oct-8-yl)-1,3,5-triazin-2-yl]phenyl}carbamoyl)amino]benzoate] | 136 | 21
C[C@H]1COCCN1c1nc(-c2ccc(NC(=O)Nc3ccc(C(=O)N4C5CCC4COC5)cc3)cc2)nc(N2CCOC[C@@H]2C)n1 [Example 839, 1-(4-{4,6-bis[(3S)-3-methylmorpholin-4-yl]-1,3,5-triazin-2-yl}phenyl)-3-[4-(3-oxa-8-azabicyclo[3.2.1]oct-8-ylcarbonyl)phenyl]urea] | 29 | 6.65
